# Active and inactive are the calls of the source. The calls are words filed in the database; no cut-off is given here.
# Legend:
# [1] = target: 3',5'-cyclic-AMP phosphodiesterase 4D (Homo sapiens, UniProt Q08499); assay: Inhibition of recombinant PDE4D2 (86 to 413 residues) (unknown origin) expressed in Escherichia coli BL21 using [3H]cAMP as substrate incubated for 15 mins by liquid scintillation method
# [2] = target: 3',5'-cyclic-AMP phosphodiesterase 4B (Homo sapiens, UniProt Q07343); assay: Inhibition of recombinant PDE4B2 (152 to 487 residues) (unknown origin) expressed in Escherichia coli BL21 using [3H]cAMP as substrate incubated for 15 mins by liquid scintillation method
# Sequence of 3',5'-cyclic-AMP phosphodiesterase 4B (Q07343 whole entry, the tested form may be a part): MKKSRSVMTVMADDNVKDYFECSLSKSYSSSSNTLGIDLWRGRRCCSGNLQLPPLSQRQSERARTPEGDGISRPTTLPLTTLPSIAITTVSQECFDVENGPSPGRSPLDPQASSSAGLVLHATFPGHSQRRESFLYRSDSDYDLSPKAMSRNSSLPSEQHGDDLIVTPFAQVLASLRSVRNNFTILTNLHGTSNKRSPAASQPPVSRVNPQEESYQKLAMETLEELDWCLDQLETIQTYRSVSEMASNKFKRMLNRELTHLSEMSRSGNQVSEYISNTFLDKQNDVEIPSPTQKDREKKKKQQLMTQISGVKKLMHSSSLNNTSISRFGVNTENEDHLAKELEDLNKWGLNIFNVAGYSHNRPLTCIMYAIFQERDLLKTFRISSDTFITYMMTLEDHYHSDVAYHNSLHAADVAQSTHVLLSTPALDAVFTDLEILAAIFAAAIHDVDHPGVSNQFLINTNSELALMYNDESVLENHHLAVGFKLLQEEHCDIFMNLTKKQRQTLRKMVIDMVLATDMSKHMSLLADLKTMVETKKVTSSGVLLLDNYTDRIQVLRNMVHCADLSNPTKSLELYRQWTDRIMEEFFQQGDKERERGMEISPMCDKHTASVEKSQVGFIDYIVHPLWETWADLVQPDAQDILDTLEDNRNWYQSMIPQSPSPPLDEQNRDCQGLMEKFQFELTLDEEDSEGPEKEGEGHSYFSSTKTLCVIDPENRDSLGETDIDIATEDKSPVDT
# [3] = target: Dual specificity calcium/calmodulin-dependent 3',5'-cyclic nucleotide phosphodiesterase 1C (Homo sapiens, UniProt Q14123); assay: Inhibition of recombinant PDE1C (147 to 531 residues) (unknown origin) expressed in Escherichia coli BL21 using [3H]cGMP as substrate incubated for 15 mins by liquid scintillation method
# [4] = target: cGMP-specific 3',5'-cyclic phosphodiesterase (Homo sapiens, UniProt O76074); assay: Inhibition of recombinant PDE5A1 (535 to 860 residues) (unknown origin) expressed in Escherichia coli BL21 using [3H]cGMP as substrate incubated for 15 mins by liquid scintillation method
# [5] = target: High affinity cAMP-specific and IBMX-insensitive 3',5'-cyclic phosphodiesterase 8A (Homo sapiens, UniProt O60658); assay: Inhibition of recombinant PDE8A1 (480 to 828 residues) (unknown origin) expressed in Escherichia coli BL21 using [3H]cAMP as substrate incubated for 15 mins by liquid scintillation method
# Sequence of High affinity cAMP-specific and IBMX-insensitive 3',5'-cyclic phosphodiesterase 8A (O60658 whole entry, the tested form may be a part): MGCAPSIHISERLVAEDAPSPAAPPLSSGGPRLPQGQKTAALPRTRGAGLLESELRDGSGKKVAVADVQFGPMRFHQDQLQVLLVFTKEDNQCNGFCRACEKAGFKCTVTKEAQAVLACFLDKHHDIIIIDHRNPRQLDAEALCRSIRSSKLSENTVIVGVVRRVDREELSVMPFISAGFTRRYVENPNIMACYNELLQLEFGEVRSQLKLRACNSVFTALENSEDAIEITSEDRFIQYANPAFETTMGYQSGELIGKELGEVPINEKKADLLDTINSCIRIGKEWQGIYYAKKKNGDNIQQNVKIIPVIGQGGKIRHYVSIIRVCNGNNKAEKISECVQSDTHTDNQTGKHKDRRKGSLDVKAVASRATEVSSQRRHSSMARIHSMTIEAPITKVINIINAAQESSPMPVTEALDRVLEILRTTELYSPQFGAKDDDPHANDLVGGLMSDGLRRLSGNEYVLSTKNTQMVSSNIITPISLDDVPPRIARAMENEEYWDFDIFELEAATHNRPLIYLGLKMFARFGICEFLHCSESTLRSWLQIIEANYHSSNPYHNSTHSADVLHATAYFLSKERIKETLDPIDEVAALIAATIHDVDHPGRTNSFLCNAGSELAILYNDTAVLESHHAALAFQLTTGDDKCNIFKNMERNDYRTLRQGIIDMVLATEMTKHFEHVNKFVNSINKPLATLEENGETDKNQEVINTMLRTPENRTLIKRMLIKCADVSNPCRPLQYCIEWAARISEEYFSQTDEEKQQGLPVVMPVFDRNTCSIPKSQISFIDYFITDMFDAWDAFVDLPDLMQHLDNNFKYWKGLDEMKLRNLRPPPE
# [6] = target: cAMP and cAMP-inhibited cGMP 3',5'-cyclic phosphodiesterase 10A (Homo sapiens, UniProt Q9Y233); assay: Inhibition of recombinant PDE10A2 (449 to 770 residues) (unknown origin) expressed in Escherichia coli BL21 using [3H]cAMP as substrate incubated for 15 mins by liquid scintillation method
# [7] = Selectivity index, ratio of IC50 for inhibition of recombinant PDE1C (147 to 531 residues) (unknown origin) expressed in Escherichia coli BL21 to IC50 for inhibition of recombinant PDE4D2 (86 to 413 residues) (unknown origin) expressed in Escherichia coli BL21
# [8] = Selectivity index, ratio of IC50 for inhibition of recombinant PDE2A (580 to 919 residues) (unknown origin) expressed in Escherichia coli BL21 to IC50 for inhibition of recombinant PDE4D2 (86 to 413 residues) (unknown origin) expressed in Escherichia coli BL21
# [9] = Selectivity index, ratio of IC50 for inhibition of PDE5A1 (535 to 860 residues) (unknown origin) expressed in Escherichia coli BL21 to IC50 for inhibition of recombinant PDE4D2 (86 to 413 residues) (unknown origin) expressed in Escherichia coli BL21
# [10] = Selectivity index, ratio of IC50 for inhibition of recombinant PDE8A1 (480 to 828 residues) (unknown origin) expressed in Escherichia coli BL21 to IC50 for inhibition of recombinant PDE4D2 (86 to 413 residues) (unknown origin) expressed in Escherichia coli BL21
# [11] = Selectivity index, ratio of IC50 for inhibition of recombinant PDE10A2 (449 to 770 residues) (unknown origin) expressed in Escherichia coli BL21 to IC50 for inhibition of recombinant PDE4D2 (86 to 413 residues) (unknown origin) expressed in Escherichia coli BL21
# [12] = target: Voltage-gated inwardly rectifying potassium channel KCNH2 (Homo sapiens, UniProt Q12809); assay: Inhibition of human ERG; assay type: toxicity
# Sequence of Voltage-gated inwardly rectifying potassium channel KCNH2 (Q12809 whole entry): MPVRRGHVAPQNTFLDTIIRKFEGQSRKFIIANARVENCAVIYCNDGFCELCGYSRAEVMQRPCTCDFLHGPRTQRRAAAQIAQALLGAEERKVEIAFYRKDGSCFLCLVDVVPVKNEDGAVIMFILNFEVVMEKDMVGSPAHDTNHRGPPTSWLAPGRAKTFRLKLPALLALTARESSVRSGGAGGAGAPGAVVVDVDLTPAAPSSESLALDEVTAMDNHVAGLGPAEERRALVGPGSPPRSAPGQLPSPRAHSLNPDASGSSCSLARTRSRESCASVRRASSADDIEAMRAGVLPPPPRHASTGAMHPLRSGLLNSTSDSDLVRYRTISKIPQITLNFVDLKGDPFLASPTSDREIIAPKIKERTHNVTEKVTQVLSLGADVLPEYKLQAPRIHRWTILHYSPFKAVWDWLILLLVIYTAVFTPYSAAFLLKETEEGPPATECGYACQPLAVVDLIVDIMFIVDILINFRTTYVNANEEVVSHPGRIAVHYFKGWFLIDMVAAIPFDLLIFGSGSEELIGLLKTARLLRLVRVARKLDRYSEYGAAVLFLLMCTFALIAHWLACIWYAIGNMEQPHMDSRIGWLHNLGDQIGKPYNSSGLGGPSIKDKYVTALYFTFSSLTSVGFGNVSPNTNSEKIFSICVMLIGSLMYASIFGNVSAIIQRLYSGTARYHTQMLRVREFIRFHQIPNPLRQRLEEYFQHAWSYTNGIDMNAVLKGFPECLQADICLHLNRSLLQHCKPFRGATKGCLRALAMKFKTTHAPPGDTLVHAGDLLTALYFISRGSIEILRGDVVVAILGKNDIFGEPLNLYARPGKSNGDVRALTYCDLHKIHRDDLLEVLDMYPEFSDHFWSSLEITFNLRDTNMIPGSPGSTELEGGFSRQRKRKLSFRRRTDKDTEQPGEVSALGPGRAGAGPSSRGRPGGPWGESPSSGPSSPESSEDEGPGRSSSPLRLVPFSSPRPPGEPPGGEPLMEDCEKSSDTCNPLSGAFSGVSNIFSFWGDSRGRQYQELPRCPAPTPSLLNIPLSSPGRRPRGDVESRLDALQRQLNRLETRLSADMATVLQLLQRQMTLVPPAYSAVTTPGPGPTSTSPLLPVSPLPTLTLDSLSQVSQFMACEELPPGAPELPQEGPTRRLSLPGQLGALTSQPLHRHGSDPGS
# Cytochrome P450 2D6 = Cytochrome P450 2D6 (Homo sapiens, UniProt P10635); assay: Inhibition of human CYP2D6 in human hepatocytes; assay type: ADME, cell-based, Hepatocyte
# Sequence of Cytochrome P450 2D6 (P10635 whole entry): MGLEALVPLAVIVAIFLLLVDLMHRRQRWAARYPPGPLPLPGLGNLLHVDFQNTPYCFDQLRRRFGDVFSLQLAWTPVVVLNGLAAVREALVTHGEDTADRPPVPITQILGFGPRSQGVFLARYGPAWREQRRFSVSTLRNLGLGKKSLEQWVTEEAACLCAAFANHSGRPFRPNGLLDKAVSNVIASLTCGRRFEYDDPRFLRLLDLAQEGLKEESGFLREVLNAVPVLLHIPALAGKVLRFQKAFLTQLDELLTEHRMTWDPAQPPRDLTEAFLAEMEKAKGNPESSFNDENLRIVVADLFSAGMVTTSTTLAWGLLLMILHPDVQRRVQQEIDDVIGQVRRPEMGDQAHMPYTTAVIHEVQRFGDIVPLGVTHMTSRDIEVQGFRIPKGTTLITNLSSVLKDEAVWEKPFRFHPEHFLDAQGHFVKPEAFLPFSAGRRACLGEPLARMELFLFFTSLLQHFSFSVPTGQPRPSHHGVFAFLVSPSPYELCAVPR
# Cytochrome P450 2C9 = Cytochrome P450 2C9 (Homo sapiens, UniProt P11712); assay: Inhibition of human CYP2C9 in human hepatocytes; assay type: ADME, cell-based, Hepatocyte
# Sequence of Cytochrome P450 2C9 (P11712 whole entry): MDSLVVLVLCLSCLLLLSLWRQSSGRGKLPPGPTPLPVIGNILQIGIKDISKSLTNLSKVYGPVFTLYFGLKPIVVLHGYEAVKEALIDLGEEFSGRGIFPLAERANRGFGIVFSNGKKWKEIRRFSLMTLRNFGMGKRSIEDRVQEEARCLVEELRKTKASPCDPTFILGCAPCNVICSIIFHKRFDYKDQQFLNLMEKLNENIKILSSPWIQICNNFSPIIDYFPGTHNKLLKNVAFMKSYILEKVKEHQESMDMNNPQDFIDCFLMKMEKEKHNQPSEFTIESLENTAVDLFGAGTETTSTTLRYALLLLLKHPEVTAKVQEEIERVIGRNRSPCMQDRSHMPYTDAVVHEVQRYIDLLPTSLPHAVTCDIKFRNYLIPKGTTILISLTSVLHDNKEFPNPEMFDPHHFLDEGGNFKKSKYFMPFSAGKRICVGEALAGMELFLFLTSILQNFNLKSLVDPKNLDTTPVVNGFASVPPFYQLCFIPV
# [13] = Clearance in Sprague-Dawley rat at 2.5 mg/kg, iv; assay type: ADME, organism-based; conditions: in vivo
# [14] = MRT(0 to 24 hrs) in Sprague-Dawley rat at 2.5 mg/kg, iv; assay type: ADME, organism-based; conditions: in vivo
# [15] = Volume of distribution at steady state in Sprague-Dawley rat at 2.5 mg/kg, iv; assay type: ADME, organism-based; conditions: in vivo, read-out: Vdss
# Mus musculus [16] = assay: Anti-inflammatory bowel disease activity in DSS-induced inflammatory bowel disease C57BL/6 mouse model assessed as decrease in body weight loss by measuring disease activity index score at 5 mg/kg, iv BID and measured upto 8 days; assay type: functional, organism-based; conditions: time <= 8.0 day
# Mus musculus [17] = assay: Anti-inflammatory bowel disease activity in DSS-induced inflammatory bowel disease C57BL/6 mouse model assessed as increase in colon length at 5 mg/kg, iv BID and measured upto 8 days; assay type: functional, organism-based; conditions: time <= 8.0 day
# Mus musculus [18] = assay: Anti-inflammatory bowel disease activity in DSS-induced inflammatory bowel disease C57BL/6 mouse model assessed as decrease in loss of crypt architecture in colon at 5 mg/kg, iv BID and measured after 8 days by Haematoxylin and eosin staining based microscopy; assay type: functional, organism-based; conditions: time 8.0 day
# Mus musculus [19] = assay: Anti-inflammatory bowel disease activity in DSS-induced inflammatory bowel disease C57BL/6 mouse model assessed as decrease in goblet cells in colon at 5 mg/kg, iv BID and measured after 8 days by Haematoxylin and eosin staining based microscopy; assay type: functional, organism-based; conditions: time 8.0 day
# Mus musculus [20] = assay: Anti-inflammatory bowel disease activity in DSS-induced inflammatory bowel disease C57BL/6 mouse model assessed as decrease in epithelial damage in colon at 5 mg/kg, iv BID and measured after 8 days by Haematoxylin and eosin staining based microscopy; assay type: functional, organism-based; conditions: time 8.0 day
# Mus musculus [21] = assay: Anti-inflammatory bowel disease activity in DSS-induced inflammatory bowel disease C57BL/6 mouse assessed as decrease in neutrophil infiltration in colon at 5 mg/kg, iv BID and measured after 8 days by Haematoxylin and eosin staining based microscopy; assay type: functional, organism-based; conditions: time 8.0 day
# Mus musculus [22] = assay: Anti-inflammatory bowel disease activity in DSS-induced inflammatory bowel disease C57BL/6 mouse model assessed as increase in body weight at 5 mg/kg, iv BID and measured after 8 days […]; assay type: functional, organism-based; conditions: time 8.0 day
# Mus musculus [23] = assay: Anti-inflammatory bowel disease activity in DSS-induced inflammatory bowel disease C57BL/6 mouse model assessed as decrease in IFN-gamma mRNA expression level in colon at 5 mg/kg, iv BID and measured after 8 days by real-time PCR analysis; assay type: functional, organism-based; conditions: time 8.0 day
# Mus musculus [24] = assay: Anti-inflammatory bowel disease activity in DSS-induced inflammatory bowel disease C57BL/6 mouse model assessed as decrease in TNF-alpha mRNA expression level in colon at 5 mg/kg, iv BID and measured after 8 days by real-time PCR analysis; assay type: functional, organism-based; conditions: time 8.0 day
# Mus musculus [25] = assay: Anti-inflammatory bowel disease activity in DSS-induced inflammatory bowel disease C57BL/6 mouse model assessed as decrease in IL-6 mRNA expression level in colon at 5 mg/kg, iv BID and measured after 8 days by real-time PCR analysis; assay type: functional, organism-based; conditions: time 8.0 day
# Mus musculus [26] = assay: Anti-inflammatory bowel disease activity in DSS-induced inflammatory bowel disease C57BL/6 mouse model assessed as decrease in IL-10 mRNA expression level in colon at 5 mg/kg, iv BID and measured after 8 days by real-time PCR analysis; assay type: functional, organism-based; conditions: time 8.0 day
# Sequence of 3',5'-cyclic-AMP phosphodiesterase 4D (Q08499 whole entry, the tested form may be a part): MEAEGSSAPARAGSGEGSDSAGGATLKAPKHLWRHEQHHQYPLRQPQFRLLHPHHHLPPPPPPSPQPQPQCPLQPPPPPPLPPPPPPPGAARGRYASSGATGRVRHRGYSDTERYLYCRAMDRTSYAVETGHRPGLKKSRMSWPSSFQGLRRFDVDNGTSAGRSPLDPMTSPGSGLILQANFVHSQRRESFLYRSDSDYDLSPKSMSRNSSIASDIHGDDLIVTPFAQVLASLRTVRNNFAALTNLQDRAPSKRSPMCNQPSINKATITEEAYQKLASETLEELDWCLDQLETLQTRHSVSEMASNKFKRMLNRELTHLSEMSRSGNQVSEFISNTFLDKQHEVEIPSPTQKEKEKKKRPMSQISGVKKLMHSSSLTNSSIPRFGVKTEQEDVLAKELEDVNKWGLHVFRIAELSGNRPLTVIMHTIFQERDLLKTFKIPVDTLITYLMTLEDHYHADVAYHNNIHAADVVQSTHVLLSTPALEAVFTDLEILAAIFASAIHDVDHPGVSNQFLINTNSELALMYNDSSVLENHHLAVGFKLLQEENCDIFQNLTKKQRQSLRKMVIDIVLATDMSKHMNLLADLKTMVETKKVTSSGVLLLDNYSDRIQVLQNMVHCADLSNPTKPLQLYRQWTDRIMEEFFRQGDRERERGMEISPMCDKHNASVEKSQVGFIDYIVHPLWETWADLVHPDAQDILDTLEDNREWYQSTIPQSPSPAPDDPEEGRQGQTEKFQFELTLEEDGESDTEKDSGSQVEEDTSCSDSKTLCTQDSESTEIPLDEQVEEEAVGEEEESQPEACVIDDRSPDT
structure (smiles),measurement,setting,value
COc1c(OCC2CC2)cc2oc3cc4c(c(OCc5ccncc5)c3c(=O)c2c1CC=C(C)C)C=CC(C)(C)O4,IC50,[1],0.0035 µM
same,IC50,[2],0.00951 µM
same,IC50,[3],> 10 µM
same,IC50,[4],1.24 µM
same,IC50,[5],0.194 µM
same,IC50,[6],1.02 µM
same,Ratio IC50,[7],> 2800
same,Ratio IC50,[8],> 2800
same,Ratio IC50,[9],353
same,Ratio IC50,[10],55
same,Ratio IC50,[11],290
same,IC50,[12],> 40 µM
same,IC50,Cytochrome P450 2D6,> 25 µM
same,IC50,Cytochrome P450 2C9,4.1 µM
same,clearance,[13],6.4 mL/min/kg
same,MRT last,[14],1.76 h
same,Vd,[15],0.673 L/kg
same,Activity,Mus musculus [16],Active
same,Activity,Mus musculus [17],Active
same,Activity,Mus musculus [18],Active
same,Activity,Mus musculus [19],Active
same,Activity,Mus musculus [20],Active
same,Activity,Mus musculus [21],Active
same,Activity,Mus musculus [22],Active
same,Activity,Mus musculus [23],Active
same,Activity,Mus musculus [24],Active
same,Activity,Mus musculus [25],Active
same,Activity,Mus musculus [26],Active

# Source: ChEMBL document CHEMBL5338717, “Discovery of novel PDE4 inhibitors targeting the M-pocket from natural mangostanin with improved safety for the treatment of Inflammatory Bowel Diseases” (Eur J Med Chem, 2022)
